The text below walks through data of PMC5526615, “Phenotypic, chemical and functional characterization of cyclic nucleotide phosphodiesterase 4 (PDE4) as a potential anthelmintic drug target” (PLoS Neglected Tropical Diseases, 2017).

Structures are written as SMILES. Where “and” joins values, the source holds several entries; their conditions need not be identical. Equal values may be shown once. Read-outs that look alike come from different tables or passages of the source.

For experiment [1], the target named is T1, huPDE4B2 (Homo sapiens, UniProt Q07343).
T1 construct: performed using the catalytic domains of (A) huPDE4B2 (NP_001032416.1); purchased Proteros Biostructures, GmbH, Martinsried, Germany
In words: PDE4 inhibition assay, huPDE4B2 catalytic domain ([3H]-cAMP hydrolysis). It is filed as biochemical. The conditions noted are these: Anacor's in-house data, mean ± SD (number of assays) or two single assay values, read-out: Human PDE4B2 IC50.
Experimental: Assays with each inhibitor were performed using the catalytic domains of (A) huPDE4B2 (NP_001032416.1) and (B) SmPDE4A (Smp_134140).
Assay of PDE4 enzymatic activity was as described [96]: huPDE4B2 was purchased from Proteros Biostructures, GmbH, Martinsried, Germany. […] The precipitate was collected by filtration onto Multi-Screen HTS FB plates (Millipore, Billerica, MA), washed and then dried for quantitation of radioactivity.

Experiment [2] concerns adult S. mansoni. In words: Wormassay adult worm motility. The class given is cell-based. The note with it: Schistosoma mansoni, 1 h, read-out: Adult motility (-fold increase vs. DMSO controls). The protocol: Adult schistosome screens were performed in 24-well plates (Corning Inc., cat. # 3544) using five worm pairs per well in a final volume of 2 ml of the above Basch medium. Compound was added in a volume of 1 μl DMSO such that the final concentration was 10 μM. Incubations were maintained for 3 days at 37°C under 5% CO2.
Parasite responses to chemical insult were adjudicated visually every 24 h (also at the 1 h time point for adults) using an inverted microscope and employed a constrained nomenclature of phenotype descriptors (e.g., rounding, degeneration, overactivity and slowed motility) as described. For adult parasites, in addition to observation-based annotations, we employed Wormassay to measure worm motility. Briefly, Wormassay comprises a commodity digital movie camera connected to an Apple personal computer that operates an open source software application to automatically process multiple wells (in 6-, 12- or 24-well plate formats). The application detects worm-induced changes in the occupation and vacancy of pixels between frames (outputted as an average ± S.D.). Worm motion was quantified using the “Consensus Voting Luminance Difference” option.

Experiment [3] deals with SmPDE4A (Schistosoma mansoni, UniProt A0A5K4ENE3). Put plainly: biochemical. The method, then:
Assays were performed in triplicate, and IC50 values were determined by non-linear regression analysis using the four-parameter logistic equation (Prism GraphPad version. 6.03).
Assay of PDE4 enzymatic activity was as described: huPDE4B2 was purchased from Proteros Biostructures, GmbH, Martinsried, Germany. […] The precipitate was collected by filtration onto Multi-Screen HTS FB plates (Millipore, Billerica, MA), washed and then dried for quantitation of radioactivity. For tests with PDE4 inhibitors, fifty percent inhibitory concentration (IC50) values were calculated based on a four-parameter logistic equation: the means and number of replicates are reported in Fig 4.

Experiment [4] has as its system WT C. elegans (N2 Bristol). Put plainly: C. elegans motility assay (body bends), wild type. The class given is cell-based, Caenorhabditis elegans. The note with it: 100 μM, 16 h. The method, then:
Compounds were directly added onto the OP50 food source at a 100 μM final concentration or the equivalent 0.2% DMSO as control. Previously synchronized early L4 stage larvae were cultivated on NGM plates with OP50 and compounds at 20°C for 16 h. For each experimental condition and transgenic line, motility was measured for 10–20 animals. The animals were washed twice in S basal buffer, transferred onto a new NGM plate in the absence of bacteria. After a brief period of recovery from this manipulation, locomotion was measured by counting the number of body bends in 30 s intervals under a stereoscope.

For experiment [5], the system named is pde4(ce268);smpde4a(a) and pde4(ce268);smpde4a(b) transgenic C. elegans. In words: C. elegans motility assay (body bends), transgenic lines expressing smpde4a. The class given is cell-based, Caenorhabditis elegans. The note with it: 100 μM, 16 h. The method, then: To generate C. elegans that carry the SmPDE4A transgene, the plasmids described above were purified and microinjected into the gonads of both WT (N2) and pde4(ce268) mutant strains at a concentration of 50 ng/μl. The injected worms (P0) were transferred to individual freshly seeded bacteria plates and allowed to reproduce. F1 progeny were screened for evidence of transgene expression based on the GFP marker. Each transgenic F1 was then singled onto a new plate. This process was repeated until lines that stably transmit the transgene were established in WT or pde(ce268) animal backgrounds. To verify the consistency of GFP expression in the transgenic lines, 10–20 transgenic animals from each line were examined using a Zeiss Axioplan II stereoscope equipped with a FITC/GFP filter (emission 500–515 nm).
Compounds were directly added onto the OP50 food source at a 100 μM final concentration or the equivalent 0.2% DMSO as control. Previously synchronized early L4 stage larvae were cultivated on NGM plates with OP50 and compounds at 20°C for 16 h. For each experimental condition and transgenic line, motility was measured for 10–20 animals. […] After a brief period of recovery from this manipulation, locomotion was measured by counting the number of body bends in 30 s intervals under a stereoscope.

For experiment [6], the system named is huPDE4A. The conditions noted are these: huPDE4A ref 96; cited from earlier work.
The subject of experiment [7] is huPDE4D. The conditions noted are these: huPDE4D ref 96; cited from earlier work.
Experiment [8] has as its system huPDE4B. The conditions noted are these: huPDE4B ref 96; cited from earlier work.
[9] abbreviates: recombinant catalytic domain, mean ± SD (number of assays) or two single assay values, read-out: SmPDE4A IC50.
Where [10] appears, read: SmPDE4A IC50, recombinant catalytic domain, mean ± SD (number of assays) or two single assay values.

T1 sequence (Q07343 324-659): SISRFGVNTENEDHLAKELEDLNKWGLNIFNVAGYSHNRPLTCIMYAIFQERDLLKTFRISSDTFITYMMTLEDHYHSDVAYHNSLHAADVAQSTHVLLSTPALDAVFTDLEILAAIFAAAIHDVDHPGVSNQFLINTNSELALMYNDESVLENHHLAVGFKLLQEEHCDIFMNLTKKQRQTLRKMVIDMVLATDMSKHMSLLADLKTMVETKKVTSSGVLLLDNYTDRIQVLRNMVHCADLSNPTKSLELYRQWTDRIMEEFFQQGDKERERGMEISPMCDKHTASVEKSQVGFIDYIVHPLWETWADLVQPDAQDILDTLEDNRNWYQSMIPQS
SmPDE4A, sequence (A0A5K4ENE3 entry or part of it): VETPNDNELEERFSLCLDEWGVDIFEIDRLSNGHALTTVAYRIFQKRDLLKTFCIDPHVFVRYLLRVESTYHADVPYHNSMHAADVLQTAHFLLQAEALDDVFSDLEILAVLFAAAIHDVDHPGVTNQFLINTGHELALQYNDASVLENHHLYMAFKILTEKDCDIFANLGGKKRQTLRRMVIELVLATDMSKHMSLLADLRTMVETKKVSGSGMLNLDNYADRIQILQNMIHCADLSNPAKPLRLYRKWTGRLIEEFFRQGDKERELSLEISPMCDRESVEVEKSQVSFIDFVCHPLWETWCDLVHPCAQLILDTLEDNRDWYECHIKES

As for `CC(C)OCCOc1nc(Oc2ccc3c(c2)COB3O)ccc1C#N` [Compound 4], the values for the 50% inhibitory concentration (IC50) in experiment [1] and in experiment [3] (setting [9]) were 3.8 ± 2.7 nM and 12 ± 6.2 nM, respectively. In addition, the fold induction at 10 µM in experiment [2] (Wormassay, 10 μM after 1 h) worked out at 5.7. Also, in experiment [4], the “motility relative to the DMSO control” value is given as “did not”.

On to `CC(C)S(=O)(=O)c1ccc(Oc2ccc3c(c2)COB3O)cc1` [Compound 6], for which the IC50 (usually the midpoint of a concentration-inhibition curve) in experiment [1] is 43.6 nM and 65 nM; in experiment [3] (setting [9]), 415 nM. Moreover, the fold induction at 10 µM in experiment [2] (Wormassay, 10 μM after 1 h) is 1.5.

In the case of `CN(C)C(=O)CCCOc1nc(Oc2ccc3c(c2)COB3O)ccc1C#N` [Compound 3], the values for the IC50 in experiment [1] and in experiment [3] (setting [9]) were 30 ± 26.7 nM and 14.7 ± 6.4 nM, respectively. Moreover, the fold induction at 10 µM in experiment [2] (Wormassay, 10 μM after 1 h) was 7.1.

As for `COc1ccc(C2CNC(=O)C2)cc1OC1CCCC1` (stereo not shown) [Rolipram, rolipram, reference compound], in experiment [3] (recombinant catalytic domain, read-out: SmPDE4A IC50), the 50% inhibitory concentration (IC50) is more than 10000 nM. Besides, the “motility of mutant lines carrying the smpde4a transgene” value in experiment [5] is recorded as “increased motility significantly”.

Consider `CC(=O)CCCOc1nc(Oc2ccc3c(c2)COB3O)c(Cl)cc1C#N` [Compound 2], for which the fold induction at 10 µM in experiment [2] (Wormassay, 10 μM after 1 h) is 7.9. In addition, the “motility relative to the DMSO control” value in experiment [4] is “increased motility”.

As to `N#Cc1ccc(Oc2ccc3c(c2)COB3O)cc1C(F)(F)F` [Compound 5], the IC50 was 68.9 nM and 22.1 nM in experiment [1]; 47 ± 27.4 nM in experiment [3] (setting [10]). For the same molecule, the fold induction at 10 µM in experiment [2] turned out to be 3.9.

On to `O=C(Nc1c(Cl)cncc1Cl)c1ccc(OC(F)F)c(OCC2CC2)c1` [Roflumilast, roflumilast, reference compound], for which the half-inhibitory concentration (IC50) in experiment [3] (setting [10]) is 11.3 nM and 18 nM and 11 nM.

Consider `CC(=O)CCCOc1nc(Oc2cc(F)c3c(c2)COB3O)c(Cl)cc1C#N` [Compound 1], for which the fold induction at 10 µM in experiment [2] (Wormassay, 10 μM after 1 h) stood at 9.9.

As for `N#Cc1ccc(Oc2ccc3c(c2)COB3O)cc1O` [Compound 7], the IC50 is 19.3 nM and 32.4 nM in experiment [1]; 123 nM in experiment [3] (setting [9]). Besides, in experiment [2] (Wormassay, 10 μM after 1 h), the fold induction at 10 µM was found to be 1.1.

Consider `Nc1ncnc2c1ncn2[C@@H]1O[C@@H]2COP(=O)(O)O[C@H]2[C@H]1O` [cAMP, cyclic adenosine monophosphate], for which the values for the Km in experiment [6], in experiment [7] and in experiment [8] were 0.98 µM, 7.81 µM and 2.25 µM, respectively.
